Data: patent US10689362B2, “Quinoxaline compounds as type III receptor tyrosine kinase inhibitors” (Development Center for Biotechnology, priority 2016, dated 2020)

Legend:
CSF-1R kinase = CSF-1R kinase (Homo sapiens (Human), UniProt P07333); test: CSF-1R kinase assay (AlphaScreen); assay type: biochemical; conditions: class symbol
Description: Inhibition of CSF-1R kinase activity by a test compound disclosed herein was estimated by AlphaScreen (PerkinElmer). […] Reactions were incubated at 30° C. for 45 min and stopped by adding 5 μL of 50 mM EDTA. Analysis of resulting product using an AlphaScreen kit, and counted with Enspire Alpha (PerkinElmer). […] The IC50 values of quinoxaline compounds of this invention against CSF-1R kinase were determined using the GraphPad Prism 5 software.

c-KIT kinase = c-KIT kinase (Homo sapiens (Human), UniProt P10721); test: c-KIT kinase assay (radiometric); assay type: biochemical; conditions: class symbol
In short: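 Recombinant c-Kit (20 ng) with 2 μg Poly-(Glu4:Tyr1) in MOPS pH 7.0 buffer with MgCl2/MnCl2, 10 μM ATP plus [^33P]-ATP, 4% DMSO final, 60 min at 30° C. Stopped with phosphoric acid, filter-captured and scintillation counted; IC50 from curve fit.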

FLT3 kinase = FLT3 kinase (Homo sapiens (Human), UniProt P36888); test: FLT3 kinase assay (radiometric); assay type: biochemical; conditions: bound
In short: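 Recombinant FLT3 (5 ng) phosphorylating poly(Glu4:Tyr1) (2 μg) with 10 μM ATP plus [^33P]-ATP in MOPS pH 7.0 buffer, 4% DMSO final, 60 min at 30° C. Reaction stopped with phosphoric acid, filter-captured and scintillation-counted; IC50 derived from dose-response.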

PDGFRβ kinase = PDGFRβ kinase (Homo sapiens (Human), UniProt P09619); test: PDGFRβ kinase assay (radiometric); assay type: biochemical
In short: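 Radiometric assay: recombinant PDGFRβ with poly(Glu4:Tyr1) in MOPS pH 7.0 buffer containing Mg2+/Mn2+, 10 μM ATP plus [33P]-ATP, and compound at 4% DMSO final. Incubated 60 min at 30° C, stopped with phosphoric acid, filter-captured and scintillation-counted. IC50 from curve fitting.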

[1] = system: CSF-1-dependent M-NFS-60 mouse myeloid leukemia cell; test: M-NFS-60 cell proliferation assay (CellTiter-96); assay type: cell-based; conditions: Cytotoxicity, M-NFS-60 cells, 72 hours
In short: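 CSF-1-dependent M-NFS-60 cells seeded at 2000 cells/well, settled overnight at 37 °C, 5% CO2, then exposed to increasing compound concentrations for 72 h. Viability read by CellTiter 96 AQueous One reagent (4 h) at 490 nm absorbance.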

[2] = system: MV4-11 human acute myeloid leukemia cell with FLT3-ITD mutation; test: MV4-11 cell proliferation assay (CellTiter-96); assay type: cell-based; conditions: Cytotoxicity, MV4-11 cells, 72 hours
In short: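 MV4-11 cells (FLT3-ITD, FLT3-dependent growth) seeded at 6500 cells/well, incubated overnight at 37° C., 5% CO2, then exposed to increasing compound concentrations for 72 hours. Viability read by CellTiter96 AQueous One reagent (4 hours), absorbance at 490 nm.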

[3] = system: Kasumi-1 human acute myeloid leukemia cell with c-KIT N822K activating mutation; test: Kasumi-1 cell proliferation assay (CellTiter-96); assay type: cell-based; conditions: Cytotoxicity, Kasumi-1 cells, 72 hours
In short: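 Kasumi-1 cells, seeded at 64000 cells/well and incubated overnight at 37 °C, were exposed to increasing compound concentrations for 72 h. Viability was measured by CellTiter96 AQueous One reagent (4 h) and absorbance at 490 nm.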

[4] = system: THP-1 human acute monocytic leukemia cell harboring NRAS G12D mutation; test: THP-1 cell proliferation assay (counter screen, CellTiter-96); assay type: cell-based; conditions: Cytotoxicity, THP-1 cells (counter screen), 72 hours
In short: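 THP-1 cells, RTK-independent owing to NRAS G12D, seeded at 5000/well, incubated overnight at 37 °C/5% CO2, then exposed to increasing compound concentrations for 72 h. CellTiter96 AQueous One reagent added for 4 h; viability from absorbance at 490 nm.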

[5] = system: osteoclast precursors (osteoclast differentiation); test: Osteoclast tartrate-resistant acid phosphatase assay; assay type: cell-based; conditions: 168 h, at 1 μM treatment, 7 days, RANKL and M-CSF, read-out: inhibition activity against osteoclast differentiation
Description: A serial dilution of test compound was dispensed into a 96-well black clear bottom plate. Compound was diluted by the addition of DMEM media supplemented with 10% characterized fetal bovine serum. Diluted compound was transferred to a 96-well black clear bottom plate. Three thousand osteoclast precursors (Lonza, Walkersville, Md.) were added per well in growth medium containing Receptor Activator of Nuclear Factor Kappa-beta ligand (RANKL) and M-CSF. […] At the end of the incubation period, 50 μL of supernatant from each well was transferred to a clear 96-well plate. Tartrate-resistant acid phosphatase activity in the supernatant samples was determined using an acid phosphatase assay kit (Sigma, St. Louis, Mo.). Absorbance was measured at 550 nm using a plate reader. […] The Inhibition activity against osteoclast differentiation for each compound at 1 μM treatment in duplicate was measured.

Chain of c-KIT kinase (P10721 26-976): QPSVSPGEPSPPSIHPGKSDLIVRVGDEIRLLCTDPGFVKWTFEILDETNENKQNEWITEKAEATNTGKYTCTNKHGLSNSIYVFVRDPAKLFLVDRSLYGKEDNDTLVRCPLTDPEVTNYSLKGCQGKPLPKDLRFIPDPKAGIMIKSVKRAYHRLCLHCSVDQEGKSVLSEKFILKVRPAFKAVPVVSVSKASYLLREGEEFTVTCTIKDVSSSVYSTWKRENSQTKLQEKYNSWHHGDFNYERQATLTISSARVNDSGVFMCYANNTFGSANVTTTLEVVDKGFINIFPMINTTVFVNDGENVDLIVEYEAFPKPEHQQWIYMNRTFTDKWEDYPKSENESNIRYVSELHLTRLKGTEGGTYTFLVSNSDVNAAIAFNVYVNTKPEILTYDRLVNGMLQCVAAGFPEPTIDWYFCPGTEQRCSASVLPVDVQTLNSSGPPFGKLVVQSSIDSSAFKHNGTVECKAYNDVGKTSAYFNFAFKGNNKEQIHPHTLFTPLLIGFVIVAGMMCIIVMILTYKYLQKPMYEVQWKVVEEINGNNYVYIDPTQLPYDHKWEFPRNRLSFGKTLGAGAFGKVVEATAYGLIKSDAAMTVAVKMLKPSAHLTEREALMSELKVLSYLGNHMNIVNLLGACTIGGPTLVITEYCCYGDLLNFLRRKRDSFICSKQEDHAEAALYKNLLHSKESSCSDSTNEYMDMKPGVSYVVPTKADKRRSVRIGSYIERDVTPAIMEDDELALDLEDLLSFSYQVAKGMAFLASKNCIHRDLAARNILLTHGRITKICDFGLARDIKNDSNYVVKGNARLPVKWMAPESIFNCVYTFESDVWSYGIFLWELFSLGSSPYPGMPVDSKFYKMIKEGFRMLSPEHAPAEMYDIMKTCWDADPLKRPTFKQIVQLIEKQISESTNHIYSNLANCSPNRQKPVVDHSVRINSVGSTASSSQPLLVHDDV
Chain of CSF-1R kinase (P07333 20-972): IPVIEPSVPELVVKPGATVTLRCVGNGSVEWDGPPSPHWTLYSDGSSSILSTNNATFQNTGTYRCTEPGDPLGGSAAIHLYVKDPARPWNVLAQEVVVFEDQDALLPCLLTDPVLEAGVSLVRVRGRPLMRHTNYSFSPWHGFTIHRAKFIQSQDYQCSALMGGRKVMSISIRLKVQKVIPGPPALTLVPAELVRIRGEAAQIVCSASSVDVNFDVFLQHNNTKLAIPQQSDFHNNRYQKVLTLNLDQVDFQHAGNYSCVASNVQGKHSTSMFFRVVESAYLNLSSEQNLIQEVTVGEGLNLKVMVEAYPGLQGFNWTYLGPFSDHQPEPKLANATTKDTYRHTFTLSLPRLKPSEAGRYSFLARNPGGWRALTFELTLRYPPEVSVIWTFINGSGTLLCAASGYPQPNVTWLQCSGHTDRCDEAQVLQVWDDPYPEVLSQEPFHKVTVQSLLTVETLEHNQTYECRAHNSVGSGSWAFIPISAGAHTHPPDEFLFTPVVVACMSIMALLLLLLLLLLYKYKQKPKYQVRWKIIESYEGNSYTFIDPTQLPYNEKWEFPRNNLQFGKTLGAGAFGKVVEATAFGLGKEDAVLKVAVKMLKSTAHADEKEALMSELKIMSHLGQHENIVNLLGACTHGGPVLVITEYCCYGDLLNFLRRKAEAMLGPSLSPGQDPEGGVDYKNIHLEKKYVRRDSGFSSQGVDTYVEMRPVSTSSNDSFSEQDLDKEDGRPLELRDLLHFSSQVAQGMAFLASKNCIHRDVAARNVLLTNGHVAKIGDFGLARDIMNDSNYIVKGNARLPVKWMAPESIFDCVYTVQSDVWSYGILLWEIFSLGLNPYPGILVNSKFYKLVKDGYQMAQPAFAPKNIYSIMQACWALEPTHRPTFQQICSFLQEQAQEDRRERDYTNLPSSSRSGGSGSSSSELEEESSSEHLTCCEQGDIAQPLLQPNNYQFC
Chain of FLT3 kinase (P36888 27-993): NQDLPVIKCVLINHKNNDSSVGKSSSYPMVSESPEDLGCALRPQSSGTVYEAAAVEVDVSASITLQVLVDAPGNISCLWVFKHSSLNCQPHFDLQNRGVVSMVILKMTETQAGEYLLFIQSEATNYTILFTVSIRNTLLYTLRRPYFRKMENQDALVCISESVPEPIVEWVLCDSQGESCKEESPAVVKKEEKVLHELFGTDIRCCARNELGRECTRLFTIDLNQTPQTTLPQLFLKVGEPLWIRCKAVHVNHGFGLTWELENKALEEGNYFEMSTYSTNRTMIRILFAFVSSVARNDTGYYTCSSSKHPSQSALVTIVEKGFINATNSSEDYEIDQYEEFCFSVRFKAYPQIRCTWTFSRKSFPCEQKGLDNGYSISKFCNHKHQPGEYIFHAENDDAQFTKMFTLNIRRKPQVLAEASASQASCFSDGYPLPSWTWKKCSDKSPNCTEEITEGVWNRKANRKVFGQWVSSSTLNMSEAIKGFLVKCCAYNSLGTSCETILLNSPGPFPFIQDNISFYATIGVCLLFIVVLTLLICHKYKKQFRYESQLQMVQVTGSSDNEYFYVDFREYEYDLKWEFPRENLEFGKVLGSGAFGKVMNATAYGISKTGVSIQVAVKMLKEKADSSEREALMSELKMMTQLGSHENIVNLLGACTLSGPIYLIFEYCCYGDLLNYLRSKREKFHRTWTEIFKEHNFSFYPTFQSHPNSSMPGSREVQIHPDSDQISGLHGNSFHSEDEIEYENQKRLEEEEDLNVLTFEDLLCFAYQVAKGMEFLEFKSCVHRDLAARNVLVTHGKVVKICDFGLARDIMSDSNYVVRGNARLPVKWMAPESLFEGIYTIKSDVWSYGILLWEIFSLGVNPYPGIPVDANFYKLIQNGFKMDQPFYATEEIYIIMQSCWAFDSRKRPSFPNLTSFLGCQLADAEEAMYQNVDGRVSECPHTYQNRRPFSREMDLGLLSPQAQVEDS
Chain of PDGFRβ kinase (P09619 33-1106): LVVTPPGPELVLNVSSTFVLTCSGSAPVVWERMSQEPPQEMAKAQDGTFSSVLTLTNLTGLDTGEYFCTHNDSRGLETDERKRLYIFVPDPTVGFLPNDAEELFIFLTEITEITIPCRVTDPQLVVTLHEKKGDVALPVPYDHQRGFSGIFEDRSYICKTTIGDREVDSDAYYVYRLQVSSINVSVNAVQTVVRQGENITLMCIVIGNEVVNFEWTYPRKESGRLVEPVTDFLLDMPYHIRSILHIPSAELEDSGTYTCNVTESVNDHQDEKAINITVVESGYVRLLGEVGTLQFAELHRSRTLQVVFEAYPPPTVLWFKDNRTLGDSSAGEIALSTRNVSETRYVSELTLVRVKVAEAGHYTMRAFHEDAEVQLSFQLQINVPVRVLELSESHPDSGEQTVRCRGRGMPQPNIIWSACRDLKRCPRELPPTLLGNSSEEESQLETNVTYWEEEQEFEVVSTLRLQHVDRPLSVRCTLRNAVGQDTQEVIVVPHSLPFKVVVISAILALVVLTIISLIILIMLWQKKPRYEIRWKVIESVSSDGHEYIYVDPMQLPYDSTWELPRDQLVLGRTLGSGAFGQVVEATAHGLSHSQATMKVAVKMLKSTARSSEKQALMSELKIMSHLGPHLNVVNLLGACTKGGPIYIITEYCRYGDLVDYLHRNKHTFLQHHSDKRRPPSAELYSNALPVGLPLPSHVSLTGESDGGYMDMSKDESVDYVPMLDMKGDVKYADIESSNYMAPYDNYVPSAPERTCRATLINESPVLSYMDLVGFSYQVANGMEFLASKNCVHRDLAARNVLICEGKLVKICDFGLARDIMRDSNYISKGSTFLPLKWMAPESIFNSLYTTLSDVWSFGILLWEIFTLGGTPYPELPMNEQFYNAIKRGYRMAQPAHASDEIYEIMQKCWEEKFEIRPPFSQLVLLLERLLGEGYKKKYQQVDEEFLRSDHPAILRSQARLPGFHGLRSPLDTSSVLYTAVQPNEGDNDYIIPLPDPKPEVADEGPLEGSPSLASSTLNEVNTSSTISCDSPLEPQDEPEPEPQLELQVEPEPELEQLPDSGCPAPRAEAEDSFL

Structure (SMILES) | IC50 (CSF-1R kinase) [nM] | IC50 (c-KIT kinase) [nM] | IC50 (FLT3 kinase) [nM] | IC50 (PDGFRβ kinase; bound) [nM] | IC50 (PDGFRβ kinase; class symbol) [nM] | IC50 [1] [nM] | IC50 [2] [nM] | IC50 [3] [nM] | IC50 [4] [nM] | inhibition at 1 µM [5] [%]
COc1cc(Nc2ccc3ncc(C4=CCOCC4)nc3c2C#N)ccc1OCc1ccc(C)nc1 [Example 113, 3-(3,6-dihydro-2H-pyran-4-yl)-6-((3-methoxy-4-((6-methylpyridin-3-yl)methoxy)phenyl)amino)quinoxaline-5-carbonitrile] | < 100 | < 100 | > 1000 | > 1000 |  | < 300 | 1000 to 10000 | 300 to 1000 | > 10000 | > 50
COc1ccc(COc2ccc(Nc3ccc4ncc(N5CCN(CCO)CC5)nc4c3C#N)cc2OC)cn1 [Example 75, 3-(4-(2-hydroxyethyl)piperazin-1-yl)-6-((3-methoxy-4-((6-methoxypyridin-3-yl)methoxy)phenyl)amino)quinoxaline-5-carbonitrile] | < 100 | 100 to 300 | > 1000 | > 1000 |  | < 300 | > 10000 | 300 to 1000 | > 10000 | > 50
COc1ccc(COc2ccc(Nc3ccc4ncc(N5CCNCC5)nc4c3C#N)cc2OC)cn1 [Example 59, 6-((3-methoxy-4-((6-methoxypyridin-3-yl)methoxy)phenyl)amino)-3-(piperazin-1-yl)quinoxaline-5-carbonitrile] | < 100 | 100 to 300 | > 1000 | > 1000 |  | < 300 | 1000 to 10000 | 300 to 1000 | 1000 to 10000 | > 50
COc1cc(Nc2ccc3ncc(N4CCOCC4)nc3c2C#N)ccc1OCc1cnn(C)c1 [Example 105, 6-((3-methoxy-4-((1-methyl-1H-pyrazol-4-yl)methoxy)phenyl)amino)-3-morpholinoquinoxaline-5-carbonitrile] | < 100 | < 100 | > 1000 | > 1000 |  | < 300 | 1000 to 10000 | 300 to 1000 | > 10000 | > 50
COc1cc(Nc2ccc3ncc(N4CCOCC4)nc3c2C#N)ccc1OCc1ccc(C(F)(F)F)nc1 [Example 73, 6-((3-methoxy-4-((6-(trifluoromethyl)pyridin-3-yl)methoxy)phenyl)amino)-3-morpholinoquinoxaline-5-carbonitrile] | < 100 | < 100 | > 1000 | > 1000 |  | < 300 | > 10000 | < 300 | > 10000 | > 50
COc1ccc(COc2ccc(Nc3ccc4ncc(N(C)C)nc4c3C#N)cc2OC)cc1 [Example 7, 3-(dimethylamino)-6-((3-methoxy-4-((4-methoxybenzyl)oxy)phenyl)amino)quinoxaline-5-carbonitrile] | < 100 | < 100 | > 1000 | > 1000 |  | < 300 | > 10000 | < 300 | > 10000 | > 50
COc1cc(Nc2ccc3ncc(N4CCC(N(C)C)CC4)nc3c2C#N)ccc1OCc1cccc(C#N)c1 [Example 84, 6-((4-((3-cyanobenzyl)oxy)-3-methoxyphenyl)amino)-3-(4-(dimethylamino)piperidin-1-yl)quinoxaline-5-carbonitrile] | < 100 | < 100 | > 1000 | > 1000 |  | < 300 | 1000 to 10000 | 300 to 1000 | 1000 to 10000 | > 50
COc1cc(Nc2ccc3ncc(N4CCOCC4)nc3c2C#N)ccc1OCc1ccc(C(C)C)nc1 [Example 103, 6-((4-((6-isopropylpyridin-3-yl)methoxy)-3-methoxyphenyl)amino)-3-morpholinoquinoxaline-5-carbonitrile] | < 100 | < 100 | > 1000 | > 1000 |  | < 300 | 1000 to 10000 | < 300 | > 10000 | > 50

Continued, in another order:

IC50 (CSF-1R kinase) [nM] | IC50 (c-KIT kinase) [nM] | IC50 (FLT3 kinase) [nM] | IC50 (PDGFRβ kinase; bound) [nM] | IC50 (PDGFRβ kinase; class symbol) [nM] | Structure (SMILES) | IC50 [1] [nM] | IC50 [2] [nM] | IC50 [3] [nM] | IC50 [4] [nM] | inhibition at 1 µM [5] [%]
< 100 | < 100 | > 1000 | > 1000 |  | COc1ccc(COc2ccc(Nc3ccc4ncc(N5CCOCC5)nc4c3C#N)cc2OC)cc1F [Example 93, 6-((4-((3-fluoro-4-methoxybenzyl)oxy)-3-methoxy-phenyl)amino)-3-morpholinoquinoxaline-5-carbonitrile] | < 300 | > 10000 | < 300 | > 10000 | > 50
< 100 | < 100 | > 1000 | > 1000 |  | COc1ccc(COc2ccc(Nc3ccc4ncc(N5CCC(OC(C)=O)CC5)nc4c3C#N)cc2OC)cc1 [Example 68, 1-(8-cyano-7-((3-methoxy-4-((4-methoxybenzyl)oxy)phenyl)amino)quinoxalin-2-yl)piperidin-4-yl acetate] | < 300 | 1000 to 10000 | < 300 | > 10000 | > 50
< 100 | < 100 | > 1000 | > 1000 |  | COc1cc(Nc2ccc3ncc(N4CCOCC4)nc3c2C#N)ccc1OCc1ccc(C2CC2)nc1 [Example 120, 6-((4-((6-cyclopropylpyridin-3-yl)methoxy)-3-methoxy-phenyl)amino)-3-morpholinoquinoxaline-5-carbonitrile] | < 300 | > 10000 | < 300 | > 10000 | > 50
< 100 | < 100 | > 1000 |  | 300 to 1000 | COc1ccc(COc2ccc(Nc3ccc4ncc(N5CCN(C(C)=O)CC5)nc4c3C#N)cc2OC)cc1 [Example 72, 3-(4-acetylpiperazin-1-yl)-6-((3-methoxy-4-((4-methoxybenzyl)oxy)phenyl)amino)quinoxaline-5-carbonitrile] | < 300 | > 10000 | < 300 | > 10000 | > 50
< 100 | < 100 | > 1000 | > 1000 |  | COc1ccc(COc2ccc(Nc3ccc4ncc(N5CCOCC5)nc4c3)cc2OC)cc1 [Example 24, N-(3-methoxy-4-((4-methoxybenzyl)oxy)phenyl)-3-morpholinoquinoxalin-6-amine] | < 300 | 1000 to 10000 | < 300 | > 10000 | > 50
< 100 | < 100 | > 1000 |  | 300 to 1000 | COc1ccc(COc2ccc(Nc3ccc4ncc(N5CCOCC5)nc4c3C#N)cc2OC)cc1OC [Example 58, 6-((4-((3,4-dimethoxybenzyl)oxy)-3-methoxyphenyl)amino)-3-morpholinoquinoxaline-5-carbonitrile] | < 300 | > 10000 | < 300 | > 10000 | > 50
